From ChEMBL document CHEMBL5346876, “Hybrids of polyphenolic/quinone acids, the potential preventive and therapeutic drugs for PD: Disaggregate α-Syn fibrils, inhibit inclusions, and repair damaged neurons in mice” (Eur J Med Chem, 2023) come the findings set out here.

SMILES strings stand for the structures. Activity calls are given as the source filed them. No cut-off for these calls is given here.

Data set [1] can be described thus: Cytotoxicity against human H4 cells assessed as cell viability at 100 uM incubated for 48 hrs by CCK-8 assay relative to control. Type of data set: toxicity, cell-based. The note with it: read-out: Activity. On the technique in general: Tetrazolium dyes change colour on reduction, which living cells bring about.
Data set [2] has as its system H4. Put plainly: Antioxidant activity in H2O2-induced human H4 cells assessed as reduction in endogenous ROS level by measuring green fluorescence preincubated with H2O2 for 3 hrs followed by compound addition and measured after 30 mins by flow cytometric analysis. Format: functional, cell-based. (In general: In flow cytometry, cells or beads pass a laser one at a time.)

The subject of data set [3] is H4. Put plainly: Antioxidant activity in H2O2-induced human H4 cells assessed as reduction in ROS generation ratio preincubated with H2O2 for 3 hrs followed by DCFH-DA addition for 30 mins and further incubated with compound and measured after 30 mins by DCFH-DA dye based fluorescence microplate reader analysis. Format: functional, cell-based. The following applies: dose 3-10 µM.

Data set [4] has as its system H4. Description: Antioxidant activity in H2O2-induced human H4 cells assessed as reduction in exogenous ROS level by measuring dark green fluorescence preincubated with H2O2 for 3 hrs followed by compound addition and measured after 30 mins by flow cytometric analysis. Format: functional, cell-based.
The nature of data set [5]: Cytotoxicity against human SH-SY5Y cells assessed as cell viability at 100 uM incubated for 48 hrs by CCK-8 assay relative to control. The following applies: read-out: Activity. Format: toxicity, cell-based.
In data set [6] the test system is H4. Description: Antioxidant activity in H2O2-induced human H4 cells assessed as ROS scavenging at 10 uM preincubated with H2O2 for 3 hrs followed by DCFH-DA addition for 30 mins and further incubated with compound and measured after 30 mins by DCFH-DA dye based fluorescence microplate reader analysis relative to control. Format: functional. The following applies: 0.5 h.

Data set [7] concerns Mus musculus. Put plainly: Neuroprotective activity against 6-OHDA-induced lesioned C57 mouse model of Parkinson's disease assessed as improvement of poor balance administered via right striatum and measured after 14 days by rotarod test. The following applies: time 14.0 day. Format: functional, organism-based. Background: In the rotarod test animals must keep their balance on a rotating rod.

Data set [8] has as its system Mus musculus. Description: Neuroprotective activity against 6-OHDA-induced lesioned C57 mouse model of Parkinson's disease assessed as reduction in apomorphine-induced contralateral rotation by measuring decrease in turn number preadministered with compound for 14 days via right striatum and measured 30 mins after apomorphine addition by videotaping analysis relative to control. The following applies: time 336.5 hrs. Format: functional. Set-up: scale not given: the % may be the effect or the level left.

Data set [9] concerns Mus musculus. Description: Neuroprotective activity against 6-OHDA-induced lesioned C57 mouse model of Parkinson's disease assessed as reduction in ipsilateral dopaminergic neuron damage in caudate putamen nucleus of brain administered via right striatum and measured after 21 days by immunofluorescence staining analysis. The note with it: time 21.0 day. Type of data set: functional, organism-based.

Data set [10] deals with Mus musculus. Put plainly: Neuroprotective activity against 6-OHDA-induced lesioned C57 mouse model of Parkinson's disease assessed as reduction of dopaminergic neuronal damage at 2.7 ug administered via right striatum and measured after 21 days. The following applies: dose 2.7 µg, time 21.0 day. Format: functional, organism-based.
The test system of data set [11] is Mus musculus. Description: Neuroprotective activity against 6-OHDA-induced lesioned C57 mouse model of Parkinson's disease assessed as reduction in weight loss administered via right striatum and measured after 14 days. Type of data set: functional, organism-based. The following applies: time 14.0 day.
The nature of data set [12]: Toxicity in C57 mouse assessed as effect on survival of ipsilateral dopaminergic neuron in caudate putamen nucleus of brain administered via right striatum and measured after 21 days by immunofluorescence staining analysis. The note with it: in vivo, other, 504 h, time 21 day.
Data set [13] can be described thus: Toxicity in C57 mouse assessed as effect on survival of ipsilateral dopaminergic neuron in substantia nigra pars reticulate of brain administered via right striatum and measured after 21 days by immunofluorescence staining analysis. The note with it: in vivo, other, 504 h, time 21 day.
Data set [14] relates to Mus musculus. Description: Neuroprotective activity against 6-OHDA-induced lesioned C57 mouse model of Parkinson's disease assessed as protection of dopaminergic neuronal damage administered via right striatum and measured after 21 days. Format: functional, organism-based. The note with it: time 21.0 day.
Data set [15] in a line: Toxicity in C57 mouse assessed as effect on time spend in rod administered via right striatum and measured after 14 days by rotarod test. The following applies: in vivo, other, 336 h, time 14 day.
Data set [16] concerns Mus musculus. Put plainly: Neuroprotective activity against 6-OHDA-induced lesioned C57 mouse model of Parkinson's disease assessed as increase in survival of ipsilateral dopaminergic neuron in substantia nigra pars reticulate of brain by measuring tyrosine hydroxylase fluorescence intensity administered via right striatum and measured after 21 days by immunofluorescence staining analysis (reference value: 9.7 %). The note with it: time 21 day. Type of data set: functional.

Data set [17] concerns Mus musculus. Put plainly: Neuroprotective activity against 6-OHDA-induced lesioned C57 mouse model of Parkinson's disease assessed as improvement of weakened grip administered via right striatum and measured after 14 days by rotarod test. Type of data set: functional, organism-based. The note with it: time 14.0 day.
Data set [18] deals with Mus musculus. Description: Neuroprotective activity against 6-OHDA-induced lesioned C57 mouse model of Parkinson's disease assessed as increase in survival of ipsilateral dopaminergic neuron in caudate putamen nucleus of brain by measuring tyrosine hydroxylase fluorescence intensity administered via right striatum and measured after 21 days by immunofluorescence staining analysis (reference value: 11.5 %). Format: functional. The following applies: time 21 day.

The test system of data set [19] is Mus musculus. Description: Neuroprotective activity against 6-OHDA-induced lesioned C57 mouse model of Parkinson's disease assessed as improvement of stiff limbs administered via right striatum and measured after 14 days by rotarod test. Format: functional, organism-based. The following applies: time 14.0 day.

On to `O=C(/C=C/c1cc(O)ccc1O)Nc1ccc(NC(=O)c2ccc(F)cc2F)cc1`, for which the viability at 48 h, 100 µM in data set [1] and in [5] was more than 85% throughout. Moreover, the outcome with H4 [2] and in the data set with H4 [4] was Active. In the data set with H4 [3], the Activity entry was “Dose-Dependent Effect”.

Turning to `O=C1C=CC(=O)C(/C=C/C(=O)Nc2ccc(NC(=O)c3ccc(F)cc3)cc2)=C1`, the viability at 48 h, 100 µM in [1] and in data set [5] was more than 85% throughout. For the same compound, the values for the Activity with H4 [6] and with H4 [3] were 70% and “Dose-Dependent Effect”, respectively.

As to `O=C1C=CC(=O)C(/C=C/C(=O)Nc2ccc(NC(=O)c3ccc(F)cc3F)cc2)=C1`, the viability at 48 h, 100 µM in [1] and in data set [5] was more than 85% each time. Besides, the result in the data set on H4 [2] and in the data set on H4 [4] was Active. The Activity entry with H4 [3] was “Dose-Dependent Effect”.

Consider `O=C(/C=C/c1ccc(O)c(O)c1)Nc1ccc(NC(=O)c2ccc(F)cc2)cc1`, for which the Activity was 70% with H4 [6] and “Dose-Dependent Effect” in the data set on H4 [3].

As for `O=C(/C=C/c1cc(O)ccc1O)Nc1ccc(NC(=O)c2ccc(O)cc2)cc1`, the viability at 48 h, 100 µM in data set [1] and in data set [5] was more than 85% in each case. The Activity in the data set with H4 [6] was 70%; in the data set with H4 [3], “Dose-Dependent Effect”.

Take `O=C1C=CC(=O)C(/C=C/C(=O)Nc2ccc(NC(=O)c3ccc(F)c(F)c3)cc2)=C1`: the viability at 48 h, 100 µM in [1] and in data set [5] was more than 85% each time. In addition, in the data set with H4 [3], the Activity entry is “Dose-Dependent Effect”.

As for `O=C(/C=C/c1cc(O)ccc1O)Nc1ccc(NC(=O)/C=C/c2cc(O)ccc2O)cc1`, the result with Mus musculus [7], in the data set with Mus musculus [9], with Mus musculus [10], in the data set with Mus musculus [11], in the data set with Mus musculus [17] and in the data set on Mus musculus [19] was Active. Also, the viability at 48 h, 100 µM in data set [1] and in data set [5] was more than 85% in each case. The Activity in the data set on Mus musculus [8] was 87%; in the data set with H4 [6], 70%; in [12], “Non-Toxic”; in data set [13] it was “Non-Toxic”; in the data set with Mus musculus [14] it was “Dose-Dependent Effect”; in the data set on H4 [3], “Dose-Dependent Effect”. Also, the Time in data set [15] came to 264 s. In addition, the Flu intensity in the data set with Mus musculus [16] turned out to be 65.1%; in the data set with Mus musculus [18] it was 66.2%.
